In patent publication US20260258064A1 (SIRONAX LTD., priority 2023, published 2026):

Target: T1, SARM1 (50-724) (Homo sapiens, UniProt Q6SZW1)
T1 construct: Purified SARM1 (50-724) with a final concentration of 2 nM was pre-incubated with a test compound
T1 sequence (Q6SZW1 50-724): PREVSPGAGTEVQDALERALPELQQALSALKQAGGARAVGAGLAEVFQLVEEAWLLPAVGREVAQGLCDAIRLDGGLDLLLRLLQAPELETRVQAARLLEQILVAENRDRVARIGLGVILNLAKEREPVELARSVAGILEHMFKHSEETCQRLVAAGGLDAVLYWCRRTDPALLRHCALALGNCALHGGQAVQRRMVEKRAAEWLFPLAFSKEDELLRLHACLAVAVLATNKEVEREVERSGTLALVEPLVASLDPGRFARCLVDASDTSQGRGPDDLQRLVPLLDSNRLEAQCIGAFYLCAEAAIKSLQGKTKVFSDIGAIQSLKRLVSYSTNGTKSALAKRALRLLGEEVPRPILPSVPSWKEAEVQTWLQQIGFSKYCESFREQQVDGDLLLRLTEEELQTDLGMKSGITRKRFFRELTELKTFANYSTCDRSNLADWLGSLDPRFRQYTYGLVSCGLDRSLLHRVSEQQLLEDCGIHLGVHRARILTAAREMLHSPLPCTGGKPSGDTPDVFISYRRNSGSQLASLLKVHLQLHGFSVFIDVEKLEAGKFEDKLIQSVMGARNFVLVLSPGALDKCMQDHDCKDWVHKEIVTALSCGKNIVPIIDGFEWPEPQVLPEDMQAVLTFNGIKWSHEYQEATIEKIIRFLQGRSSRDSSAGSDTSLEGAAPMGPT
Assay: SARM1 (50-724) enzymatic assay (LC-MS/MS)
Type: biochemical
Conditions: Purified SARM1 (50-724) 2 nM, NMN as activator, NAD+ as substrate, 1 h at room temperature, read-out: IC50 (SARM1 inhibitory activity)
Procedure, shortened: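 Human SARM1 (50-724), 2 nM, pre-incubated 15 min at room temperature with compound in Dulbecco's PBS. Reaction started with 200 µM NMN (activator) plus […] NAD^+ substrate, run 1 h at room temperature, quenched with 70% acetonitrile. Turnover quantified by LC-MS/MS; IC50 reported.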

| IC50 [nM] | Structure (SMILES) |
| --- | --- |
| ≤ 100 | O=c1cc(-c2nc3cc(C(F)(F)F)ccc3[nH]2)c(-c2cccc(Cl)c2Cl)c[nH]1 [Example 40, 5-(2,3-dichlorophenyl)-4-[5-(trifluoromethyl)-1H-benzimidazol-2-yl]-1H-pyridin-2-one] |
| ≤ 100 | FC(F)(F)c1ccc2[nH]c(-c3nncn3-c3cc4nccn4cc3C(F)(F)F)nc2c1 [Compound 236, 5-(trifluoromethyl)-2-(4-(6-(trifluoromethyl)imidazo[1,2-a]pyridin-7-yl)-4H-1,2,4-triazol-3-yl)-1H-benzo[d]imidazole] |
| > 1000 | FC(F)(F)c1ccc2[nH]c([C@H]3COC[C@@H]3c3ccccc3)nc2c1 (single isomer, unassigned) [Compound 350] |
| 500 to 1000 | Cc1ccc2[nH]c(-c3ccncc3-c3cccc(Cl)c3Cl)nc2c1 [Example 22] |
| ≤ 100 | FC(F)(F)c1cnc2[nH]c(-c3nncn3-c3cnccc3C(F)(F)F)cc2c1 [Compound 287, 5-(trifluoromethyl)-2-(4-(4-(trifluoromethyl)pyridin-3-yl)-4H-1,2,4-triazol-3-yl)-1H-pyrrolo[2,3-b]pyridine] |
| ≤ 100 | CS(=N)(=O)Cc1nnc(-c2nc3cc(Cl)cc(F)c3[nH]2)n1-c1cccc(F)c1Cl (centres unmarked) [Compound 192, ((4-(2-chloro-3-fluorophenyl)-5-(5-chloro-7-fluoro-1H-benzo[d]imidazol-2-yl)-4H-1,2,4-triazol-3-yl)methyl)(imino)(methyl)-16-sulfanone] |
| 100 to 500 | Cn1nc(Cl)c(Cl)c1-n1cnnc1-c1nc2cc(C(F)(F)F)ccc2[nH]1 [Example 63] |
| > 1000 | CS(=O)(=O)Cc1nnc(-c2nc3c(F)c(C(F)(F)F)ccc3[nH]2)n1-c1cccc(F)c1Cl (single isomer, unassigned) [Compound 196, 2-(4-(2-chloro-3-fluorophenyl)-5-((methylsulfonyl)methyl)-4H-1,2,4-triazol-3-yl)-4-fluoro-5-(trifluoromethyl)-1H-benzo[d]imidazole] |
| ≤ 100 | CCc1nnc(-c2nc3cc(C(F)(F)F)ccc3[nH]2)n1-c1cccc(Cl)c1Cl [Compound 145, 2-(4-(2,3-dichlorophenyl)-5-ethyl-4H-1,2,4-triazol-3-yl)-5-(trifluoromethyl)-1H-benzo[d]imidazole] |
| ≤ 100 | CCC(c1ccc2[nH]c(-c3nncn3-c3ccncc3OC(F)(F)F)nc2c1)C(F)F (centres unmarked) [Compound 238, 5-(1,1-difluorobutan-2-yl)-2-(4-(3-(trifluoromethoxy)pyridin-4-yl)-4H-1,2,4-triazol-3-yl)-1H-benzo[d]imidazole] |
| ≤ 100 | OCCOCc1nnc(-c2nc3cc(C(F)(F)F)ccc3[nH]2)n1-c1cccc(Cl)c1Cl [Example 126] |
| > 1000 | CP(C)(=O)c1ccc(Cl)c(-n2cnnc2-c2nc3cc(C(F)(F)F)ccc3[nH]2)c1 [Compound 244, (4-chloro-3-(3-(5-(trifluoromethyl)-1H-benzo[d]imidazol-2-yl)-4H-1,2,4-triazol-4-yl)phenyl)dimethylphosphine oxide] |
| 100 to 500 | FC(F)(F)c1ccc2[nH]c(-c3nnccc3-c3ccncc3C(F)(F)F)nc2c1 [Compound 302, 5-(Trifluoromethyl)-2-(4-(3-(trifluoromethyl)pyridin-4-yl)pyridazin-3-yl)-1H-benzo[d]imidazole] |
| ≤ 100 | Cc1ccn(-c2cc(F)c3[nH]c(-c4nncn4-c4cnccc4C(F)(F)F)nc3c2)n1 [Compound 401, 7-fluoro-5-(3-methyl-1H-pyrazol-1-yl)-2-(4-(4-(trifluoromethyl)pyridin-3-yl)-4H-1,2,4-triazol-3-yl)-1H-benzo[d]imidazole] |
| 100 to 500 | FC(F)(F)c1ccc2[nH]c(-c3nncn3-c3c(Cl)cccc3-c3ccn[nH]3)nc2c1 [Compound 168, 2-(4-(2-chloro-6-(1H-pyrazol-5-yl)phenyl)-4H-1,2,4-triazol-3-yl)-5-(trifluoromethyl)-1H-benzo[d]imidazole] |
| ≤ 100 | CC1(O)CC(Cc2nnc(-c3nc4cc(C(F)(F)F)ccc4[nH]3)n2-c2cccc(F)c2Cl)C1 (centres unmarked) [Compound 421, 3-((4-(2-chloro-3-fluorophenyl)-5-(5-(trifluoromethyl)-1H-benzo[d]imidazol-2-yl)-4H-1,2,4-triazol-3-yl)methyl)-1-methylcyclobutan-1-ol] |
| ≤ 100 | CC(O)C(C)(C)c1ccc2[nH]c(-c3nncn3-c3cccc(Cl)c3Cl)nc2c1 (centres unmarked) [Compound 140, 3-(2-(4-(2,3-dichlorophenyl)-4H-1,2,4-triazol-3-yl)-1H-benzo[d]imidazol-5-yl)-3-methylbutan-2-ol] |
| ≤ 100 | O=c1cc(-c2nc3cc(C(F)(F)F)ccc3[nH]2)c(-c2cccc(Cl)c2Cl)cn1CCO [Example 64] |

| IC50 [nM] | Structure (SMILES) |
| --- | --- |
| > 1000 | Cc1ccc2[nH]c(-n3c(C4CCCC4)n[nH]c3=O)nc2c1 [Compound 12, 5-cyclopentyl-4-(5-methyl-1H-benzo[d]imidazol-2-yl)-2,4-dihydro-3H-1,2,4-triazol-3-one] |
| 500 to 1000 | OC1CCN(c2cc(F)c3[nH]c(-c4nncn4-c4cnccc4C(F)(F)F)nc3c2)C1 (centres unmarked) [Compound 447, 1-(4-fluoro-2-(4-(4-(trifluoromethyl)pyridin-3-yl)-4H-1,2,4-triazol-3-yl)-1H-benzo[d]imidazol-6-yl)pyrrolidin-3-ol] |
| > 1000 | Cc1ccc2[nH]c(-c3nncn3C3CCCC3)nc2c1 [Example 1, 2-(4-cyclopentyl-4H-1,2,4-triazol-3-yl)-5-methyl-1H-benzo[d]imidazole] |
| ≤ 100 | Oc1cc(F)c2[nH]c(-c3nncn3-c3cnccc3C(F)(F)F)nc2c1 [Compound 327, 7-fluoro-2-(4-(4-(trifluoromethyl)pyridin-3-yl)-4H-1,2,4-triazol-3-yl)-1H-benzo[d]imidazol-5-ol] |
| > 1000 | O=S1(=O)CC[C@@H](OC(F)(F)F)[C@H](n2cnnc2-c2nc3cc(C(F)(F)F)ccc3[nH]2)C1 (single isomer, unassigned) [Compound 288] |
| ≤ 100 | Clc1cc(-c2ccc3[nH]c(-c4nncn4-c4cccc(Cl)c4Cl)nc3c2)[nH]n1 [Example 82, 5-(3-chloro-1H-pyrazol-5-yl)-2-(4-(2,3-dichlorophenyl)-4H-1,2,4-triazol-3-yl)-1H-benzo[d]imidazole] |
| ≤ 100 | Fc1cc(C(F)F)cc2nc(-c3nncn3-c3cnccc3C(F)(F)F)[nH]c12 [Compound 467, 6-(difluoromethyl)-4-fluoro-2-(4-(4-(trifluoromethyl)pyridin-3-yl)-4H-1,2,4-triazol-3-yl)-1H-benzo[d]imidazole] |
| ≤ 100 | CC1(c2ccc3[nH]c(-c4nncn4-c4ccncc4OC(F)(F)F)nc3c2)CC1 [Compound 224, 5-(1-methylcyclopropyl)-2-(4-(3-(trifluoromethoxy)pyridin-4-yl)-4H-1,2,4-triazol-3-yl)-1H-benzo[d]imidazole] |
| 100 to 500 | Cn1cc(-c2ccccc2Cl)c(-c2nc3cc(C(F)(F)F)ccc3[nH]2)cc1=O [Example 75] |
| ≤ 100 | OC1(c2ccc3[nH]c(-c4nncn4-c4cccc(Cl)c4Cl)nc3c2)CC1 [Example 133] |
| ≤ 100 | Cn1c(-n2cnnc2-c2nc3cc(C(F)(F)F)ccc3[nH]2)c(C(F)(F)F)ccc1=O [Compound 284, 1-methyl-5-(trifluoromethyl)-6-(3-(5-(trifluoromethyl)-1H-benzo[d]imidazol-2-yl)-4H-1,2,4-triazol-4-yl)pyridin-2(1H)-one] |
| 100 to 500 | Cc1ccc2[nH]c(-c3ccc(C#N)n3C3CCCC3)nc2c1 [Compound 19, 1-cyclopentyl-5-(5-methyl-1H-1,3-benzodiazol-2-yl)pyrrole-2-carbonitrile] |
| 100 to 500 | Cc1cnn(C)c1-c1ccc2[nH]c(-c3nncn3-c3cccc(Cl)c3Cl)nc2c1 [Example 81, 2-(4-(2,3-dichlorophenyl)-4H-1,2,4-triazol-3-yl)-5-(1,4-dimethyl-1H-pyrazol-5-yl)-1H-benzo[d]imidazole] |
| > 1000 | Cc1ccc2[nH]c(-c3ccc(C(N)=O)n3C3CCCC3)nc2c1 [Compound 24, 1-cyclopentyl-5-(5-methyl-1H-1,3-benzodiazol-2-yl)pyrrole-2-carboxamide] |
| > 1000 | Cc1ccc2[nH]c(-c3ncccc3-c3cccc(Cl)c3Cl)nc2c1 [Example 21] |
| 500 to 1000 | O=C1CCCN1Cc1nnc(-c2nc3cc(C(F)(F)F)ccc3[nH]2)n1-c1cccc(F)c1Cl [Compound 384, 1-((4-(2-chloro-3-fluorophenyl)-5-(5-(trifluoromethyl)-1H-benzo[d]imidazol-2-yl)-4H-1,2,4-triazol-3-yl)methyl)pyrrolidin-2-one] |
| 500 to 1000 | FC(F)(F)c1ccncc1-n1cnnc1-c1nc2c(C3CC3)c(Cl)ccc2[nH]1 [Compound 333, 6-chloro-7-cyclopropyl-2-(4-(4-(trifluoromethyl)pyridin-3-yl)-4H-1,2,4-triazol-3-yl)-1H-benzo[d]imidazole] |
